Measurements published in article PMC10290335 (Malaria Journal, 2023).
Values after ≈ are worked out from the molar mass of the structure shown. Values joined by “and” are separate entries in the source; they are usually repeats but may differ in a detail not shown here. Equal values may be shown once. “Also recorded” adds a separate entry of the source. Read-outs that look alike come from different tables or passages of the source.

Experiments:
[1] = system: Anopheles stephensi mosquitoes; experiment: Anopheles stephensi membrane feeding screening assay (survival and activity); format: in vivo; details: for Average activity score: score +2 flying, +1 moving, 0 dead; for mean survival of mosquitoes after blood meal: blood meal at Cmax level; for mosquitoes dead after 72 h: blood meal at Cmax level (ivermectin 50 ng/mL), 72 h after treatment; for activity against An. stephensi: at Cmax levels observed in clinical PK samples
Procedure: The final DMSO content in blood was 0.1%, which was also the DMSO concentration used for the negative control assays (0.1% DMSO in blank blood). Inclusion of blank fractions as additional negative controls were not considered, because it would not have been feasible to also test the corresponding blank fraction for each metabolite fraction (F1–F9). The blood preparations were rotated at room temperature for 20 min to ensure a uniform metabolite distribution (Rotator Genie, Scientific Industries, Bohemia, USA). The dissolution of the metabolites was confirmed by LC–MS/MS.
Around 50–70 female mosquitoes aged 5–10 days post-emergence were transferred with a mouth aspirator into 20 mL paper cups. A piece of mosquito netting was used to cover the cups. Mosquitoes were starved for 24 h before treatment. The mosquito blood meals were heated in a water bath (SAHARA PPO S5P Heated Bath Circulators, Thermo Fisher Scientific, New Hampshire, USA) for 20 min at 39 °C. A Petri dish (35 mm × 10 mm, BD, Franklin Lakes, USA) was filled with 3 mL of warm blood, sealed with a piece of sealing film (Parafilm®, Huberlab AG, Aesch, Switzerland). The Petri dish was placed upside down on top of the net sealing the paper cup. Female mosquitoes were allowed to feed for 20 min on the blood through the net and the sealing film. The feeding was conducted in a climate chamber (HPP110, Memmert GmbH + Co.KG, Schwabach, Germany) at 27 °C, 70% humidity, and 30% light intensity. After feeding, the cups were put on ice to immobilise the mosquitoes and only the fully engorged mosquitoes were selected for the assay. The mosquitoes were returned to the climate chamber to assess their activity and survival for 3 days.
In the framework of screening assays, mosquitoes were treated with blood containing each metabolite corresponding to Cmax levels observed in PK samples. […] In screening assays, eleven treatments were evaluated with three replicates using three batches of 50–70 mosquitoes.

[2] = system: Anopheles stephensi mosquitoes; experiment: 3-day LC50 in Anopheles stephensi (membrane feeding, dilutions); format: in vivo; details: 72 h after blood feeding
Procedure: A pilot test was performed to evaluate optimal dilutions matching the expected LC50 values (data not shown).
Student's t test was adopted to test the significance of all mean survival differences between groups, using the R package ggsignif (version 0.6.4). Survival analyses, summary and visualisation of survival analysis were computed using the GNU R packages survival (version 3.1-8) and survminer (version 0.4.9). Replicates were pooled and analysed by the logrank test and the hazard ratio with 95% confidence intervals. LC50 in An. stephensi mosquito were approximated with regression analysis, using GNU R package drc (version 3.0-1) for analysis of dose–response curves (Additional file 1: Fig. S3). The time above LC50 estimation (Additional file 1: Fig. S4) was computed using the GNU R package data.table (version 1.14.6).

rh CYP3A5 supersomes = biological target: T1, rh CYP3A5 supersomes (Homo sapiens, UniProt P20815); experiment: Ivermectin metabolism by recombinant human CYP3A5 supersomes; format: in vitro ADME; details: 10 µM ivermectin
T1 construct: purchased Corning Life Sciences B.V. (Amsterdam, The Netherlands)
T1 sequence (P20815 whole entry): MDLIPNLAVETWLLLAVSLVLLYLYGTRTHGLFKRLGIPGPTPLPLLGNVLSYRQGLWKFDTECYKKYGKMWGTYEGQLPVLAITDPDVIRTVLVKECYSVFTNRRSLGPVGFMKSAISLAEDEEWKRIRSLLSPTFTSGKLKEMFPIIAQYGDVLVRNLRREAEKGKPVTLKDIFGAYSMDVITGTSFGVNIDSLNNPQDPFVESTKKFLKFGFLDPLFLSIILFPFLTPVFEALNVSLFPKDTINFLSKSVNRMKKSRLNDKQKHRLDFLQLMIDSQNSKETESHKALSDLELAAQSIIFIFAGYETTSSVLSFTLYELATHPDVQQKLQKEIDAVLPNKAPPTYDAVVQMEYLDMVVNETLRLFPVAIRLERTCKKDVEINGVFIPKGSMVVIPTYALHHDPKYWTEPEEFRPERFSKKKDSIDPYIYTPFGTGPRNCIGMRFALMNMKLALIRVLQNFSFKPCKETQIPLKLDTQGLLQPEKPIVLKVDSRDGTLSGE
Procedure: (§1) The assay mixture was heated for 10 min at 37 °C in a Thermomixer 5436 (Eppendorf, Hamburg, Germany) and the reaction was initiated by the addition of supersomes. Samples (50 μL) were taken after 0, 15, 30, 45, and 60 min. […] After centrifugation (30 min at 3220×g and 15 °C, 5810 R Eppendorf centrifuge), sample supernatants (10 µL) were analysed by LC–MS/MS. Metabolite production was quantified by dividing the metabolite peak area with the ISTD peak area. Each metabolism assay was performed in triplicate.

An. gambiae = details: cited from earlier work
[3] = plasma, single oral 12 mg ivermectin, mean ± SD; cited from earlier work
An. stephensi = details: cited from earlier work
[4] = cited from earlier work
Aedes aegypti = details: cited from earlier work
rh CYP3A4 supersomes = biological target: T2, rh CYP3A4 supersomes (Homo sapiens, UniProt P08684); experiment: Ivermectin metabolism by recombinant human CYP3A4 supersomes; format: in vitro ADME; details: 10 µM ivermectin
T2 construct: purchased Corning Life Sciences B.V. (Amsterdam, The Netherlands)
T2 sequence (P08684 whole entry): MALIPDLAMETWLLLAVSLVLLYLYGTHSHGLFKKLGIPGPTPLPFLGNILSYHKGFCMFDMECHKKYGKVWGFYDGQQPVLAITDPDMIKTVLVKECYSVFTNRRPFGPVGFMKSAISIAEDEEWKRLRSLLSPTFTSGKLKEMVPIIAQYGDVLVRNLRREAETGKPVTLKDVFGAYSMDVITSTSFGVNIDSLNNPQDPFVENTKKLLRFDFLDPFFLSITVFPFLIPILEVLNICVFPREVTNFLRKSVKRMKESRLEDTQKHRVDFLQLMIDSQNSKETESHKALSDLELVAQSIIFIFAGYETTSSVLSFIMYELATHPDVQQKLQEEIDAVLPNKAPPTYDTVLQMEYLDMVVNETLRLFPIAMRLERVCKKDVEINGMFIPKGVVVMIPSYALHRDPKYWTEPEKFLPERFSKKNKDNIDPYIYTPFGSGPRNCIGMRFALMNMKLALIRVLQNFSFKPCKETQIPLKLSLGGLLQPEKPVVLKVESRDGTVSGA
Procedure: as §1

[5] = Clinical pharmacokinetics of ivermectin metabolites in blood of healthy volunteers; format: in vivo, human; details: for Cmax [ratio]: area/internal standard area ratio; for Cmax [ratio] / Half-life / MRTlast / Tmax: whole blood, 12 subjects, mean ± SE; for Cmax [ratio] / Half-life / MRTlast: 12 mg ivermectin, NCA; for Tmax: single oral 12 mg ivermectin
Procedure: Peripheral venous blood samples were collected before dosing and after 1, 2, 4, 6, 8, 12, 24, 48 and 72 h. Blood samples (50 µL) were extracted by the addition of 150 µL ISTD solution. Samples were mixed for 1 min and centrifuged for 30 min at 3220×g and 15 °C (5810 R centrifuge). Twenty microlitres of supernatant were injected into the LC–MS/MS system to determine the signal intensity of the metabolites.
The different LC–MS/MS settings were applied for the metabolism, pharmacokinetic and metabolite fractioning assays (Additional file 1: Table S1, S2, S3). All analyses were performed on a modular HPLC (Shimadzu, Kyoto, Japan) composed of four pumps (2 × LC-30AD, 2 × LC-20AD), an autosampler (SIL 30-AC MP), a system controller (CBM-20A), two degassing units (DGU-20A5 and DGU-20A3R), a column oven (CTO-20AC), a low-pressure valve (FCV-12AH), and a fraction collector (FRC-12A). The HPLC system was connected to an API 5000 triple quadrupole mass spectrometer (AB Sciex, Ontario, Canada) that was equipped with a turbo electrospray ionization source. The system was operated with Analyst Software 1.7 (AB Sciex) and acquired data were analysed using MultiQuant Software 3.0.3 (AB Sciex).
The integral method “linear up log down” was used on area/internal standard area ratio.
In total, three T0 blank blood samples originating from different PK study participants were used to resuspend the metabolites (Additional file 1: Table S5). The signal intensity was recorded for every metabolite by extracting the 50 µL blood with 150 µL of ISTD solution. The metabolite peak area was determined by LC–MS/MS (see section LC-MS/MS analysis of ivermectin). Moreover, the PK samples of all study participants were equally extracted and analysed to derive the maximal blood level (Cmax) from the blood level-time curves. Afterwards, the mean metabolite peak area of the spiked blank blood was compared with the mean peak area of the Cmax samples (Additional file 1: Table S5). The amount of each metabolite fraction was either reduced or increased to match the peak area of Cmax samples. If the metabolite was not detectable in PK samples, the amount of metabolite was adjusted to the lower limit of detection of the method. In this case, blank blood was spiked with the metabolite fraction to receive a signal intensity that is three times larger than the corresponding noise level.

[6] = Cmax = maximal peak area in human PK samples
[7] = mean of PK subjects 1-12, 50 µL blood

| SMILES | Average activity score ([1]; 0 h post feeding) | Average activity score ([1]; 24 h post feeding) | Average activity score ([1]; 48 h post feeding) | Average activity score ([1]; 72 h post feeding) | mean survival of mosquitoes after blood meal [1] | mosquitoes dead after 72 h [1] [%] | activity against An. stephensi [1] | 3-day LC50 [2, 6] [Cmax] | Observed Cmax, peak area ([5]; PK subject 1, 50 µL blood) [counts] | Observed Cmax, peak area ([5]; PK subject 2, 50 µL blood) [counts] | Observed Cmax, peak area ([5]; PK subject 3, 50 µL blood) [counts] | Observed Cmax, peak area ([5]; PK subject 4, 50 µL blood) [counts] | Observed Cmax, peak area ([5]; PK subject 5, 50 µL blood) [counts] | Observed Cmax, peak area ([5]; PK subject 6, 50 µL blood) [counts] | Observed Cmax, peak area ([5]; PK subject 7, 50 µL blood) [counts] | Observed Cmax, peak area ([5]; PK subject 8, 50 µL blood) [counts] | Observed Cmax, peak area ([5]; PK subject 9, 50 µL blood) [counts] | Observed Cmax, peak area ([5]; PK subject 10, 50 µL blood) [counts] | Observed Cmax, peak area ([5]; PK subject 11, 50 µL blood) [counts] | Observed Cmax, peak area ([5]; PK subject 12, 50 µL blood) [counts] | also measured |
| --- | --- | --- | --- | --- | --- | --- | --- | --- | --- | --- | --- | --- | --- | --- | --- | --- | --- | --- | --- | --- | --- |
| CCC(C)C1OC2(CCC1C)CC1CC(CC=C(C)C(OC3CC(OC)C(OC4CC(OC)C(O)C(C)O4)C(C)O3)C(C)C=CC=C3COC4C(O)C(C)=CC(C(=O)O1)C34O)O2 (stereo not shown) [Ivermectin, 22,23-dihydroavermectin B1a, reference compound] | 2.00 | 0.71 ± 0.05 | 0.03 ± 0.02 | 0 | decreased | 100 |  |  |  |  |  |  |  |  |  |  |  |  |  |  | Average activity score ([1]; 24 h post feeding, listed as IVM): 0.71; Average activity score ([1]; 48 h post feeding, listed as IVM): 0.03; 3-day LC50 [2]: 3.07 ng/mL; LC50 ([2]; Anopheles stephensi, 72 h): ~3 ng/mL (≈ 3.43 nM); ivermectin metabolised (rh CYP3A5 supersomes; within 1 h): 20%; 7-day-LC50 (An. gambiae; blood fed from treated humans): 3.4 ng/mL; 7-day-LC50 (An. gambiae; spiked ivermectin experiments (in vitro mixture)): 15.9 ng/mL; Cmax [3]: 70.7 ± 16.1 ng/mL; Half-life [3]: 38.9 ± 20.8 h; Tmax [3]: 4.4 ± 1.4 h; 4-day-LC50 (An. stephensi): 7 ng/mL; estimated half-life [4]: 24 to 72 h; peak concentration ([4]; single oral dose of 150 µg/kg): around 40 ng/mL; time of peak concentration ([4]; single oral dose of 150 µg/kg): Approximately 4 h; LC50 within 7-days (Aedes aegypti): 178 to 187 ng/mL; ivermectin metabolised (rh CYP3A4 supersomes; within 1 h): 80% |
| CCC(C)C1OC2(CCC1C)CC1CC(CC=C(C)C(OC3CC(OC)C(OC4CC(O)C(O)C(C)O4)C(C)O3)C(C)C=CC=C3COC4C(O)C(C)=CC(C(=O)O1)C34O)O2 (stereo not shown) [M1, 3″-O-desmethyl-H2B1a] | 2.00 | 1.07 and 1.07 ± 0.04 | 0.23 and 0.23 ± 0.02 | 0.01 | decreased | 98.8 | active | 0.25 | 1.95E+04 | 1.01E+04 | 1.39E+04 | 8.48E+03 | 9.52E+03 | 2.33E+04 | 1.56E+04 | 1.79E+04 | 1.28E+04 | 1.60E+04 | 2.28E+04 | 1.78E+04 | Cmax [ratio] [5]: 0.011 ± 0.001 ratio; Observed Cmax, peak area [5, 7]: 1.56E+04 counts; Half-life [5]: 54.2 ± 4.7 h; MRTlast [5]: 33.8 ± 0.9 h; Tmax [5]: 7.0 ± 0.5 h |
| CC[C@H](C)[C@H]1O[C@]2(CC[C@@H]1CO)C[C@@H]1C[C@@H](C/C=C(\C)[C@@H](O[C@H]3C[C@H](OC)[C@@H](O[C@H]4C[C@H](OC)[C@@H](O)[C@H](C)O4)[C@H](C)O3)[C@@H](C)/C=C/C=C3\CO[C@@H]4[C@H](O)C(C)=C[C@@H](C(=O)O1)[C@]34O)O2 [M9, 24-hydroxy-H2B1a] | 2.00 | 1.92 | 1.87 | 1.64 |  |  |  |  |  |  |  |  |  |  |  |  |  |  |  |  | metabolite formation by CYP3A5 (rh CYP3A5 supersomes): mainly produced by CYP3A5; also recorded: very effective; detection in pharmacokinetic samples ([5]; human blood after single oral 12 mg ivermectin): Only traces; metabolite formation by CYP3A4 (rh CYP3A4 supersomes): only minor amounts |
| CCC(C)C1OC2(CCC1C)CC1CC(CC=C(C)C(OC3CC(OC)C(OC4CC(OC)C(O)C(C)O4)C(C)O3)C(C)C=CC=C3COC4C(O)C(CO)=CC(C(=O)O1)C34O)O2 (stereo not shown) [M2, 4-hydroxy-H2B1a] | 2.00 | 1.20 and 1.20 ± 0.12 | 0.28 and 0.28 ± 0.05 | 0 | decreased | 100 | active | 0.21 | 1.84E+04 | 9.36E+03 | 1.31E+04 | 7.42E+03 | 9.63E+03 | 2.00E+04 | 1.39E+04 | 1.25E+04 | 1.08E+04 | 1.50E+04 | 1.64E+04 | 1.59E+04 | Cmax [ratio] [5]: 0.010 ± 0.0010 ratio; Observed Cmax, peak area [5, 7]: 1.35E+04 counts; Half-life [5]: 31.9 ± 3.4 h; MRTlast [5]: 25.8 ± 0.7 h; Tmax [5]: 6.3 ± 0.3 h |
